Source: ChEMBL document CHEMBL3600319, “Chemical constituents isolated from the Mongolian medicinal plant Sophora alopecuroides L. and their inhibitory effects on LPS-induced nitric oxide production in RAW 264.7 macrophages” (Bioorg Med Chem Lett, 2015)

Assays:
RAW264.7 [1] = experiment: Antiinflammatory activity in mouse RAW264.7 cells assessed as inhibition of LPS-stimulated nitric oxide production after 24 hrs by Griess method; type: functional, cell-based; conditions: RAW264.7, 24 h
RAW264.7 [2] = experiment: Cytotoxicity against mouse RAW264.7 cells assessed as cell viability at IC50 by MTT assay; type: cell-based
RAW264.7 [3] = experiment: Potency index, ratio of aminoguanidine IC50 to compound IC50 for mouse RAW264.7 cells; type: functional

Compound	IC50 (RAW264.7 [1]) [µM]	Activity (RAW264.7 [2])	Ratio IC50 (RAW264.7 [3])
C=C(C)[C@H](CC=C(C)C)Cc1c(O)cc(O)c2c1O[C@H](c1ccc(O)cc1O)CC2=O [SOPHORAFLAVANONE G]	10.9	Non-toxic	
OC[C@H]1O[C@@H](Oc2ccc3c(c2)OC[C@H]2c4cc5c(cc4O[C@@H]32)OCO5)[C@H](O)[C@@H](O)[C@@H]1O [TRIFOLIRHIZIN]	> 50	Non-toxic	
CC(C)=CCc1c(O)cc(O)c2c1OC(c1ccc(O)cc1)CC2=O (stereo unspecified) [SOPHORAFLAVANONE B]	26.3	Non-toxic	
N=C(N)NN [PIMAGEDINE]	20.6		
C=C(C)C(CC=C(C)C)Cc1c(O)cc(OC)c2c1O[C@H](c1ccc(O)cc1O)CC2=O (stereo partly specified) [KURARINONE]	26.6	Non-toxic	
Oc1ccc([C@@H]2c3c(O)cc(O)cc3[C@H]3[C@H](c4ccc(O)cc4)c4c(O)cc(O)cc4[C@@H]23)cc1 [PALLIDOL]	> 50	Non-toxic	
CC(C)=CCC1Cc2c(cc(O)c3c2O[C@H](c2ccc(O)cc2O)CC3=O)OC1(C)C (stereo partly specified)	10.7	Non-toxic	
C=CC(C)(C)c1c(OC)cc(O)c2c(=O)c3c(CC=C(C)C)c(O)c(O)cc3oc12 [CUDRAXANTHONE D]	16.1	Non-toxic	

Further lines, with some results ahead:

IC50 (RAW264.7 [1]) [µM]	Compound	Activity (RAW264.7 [2])	Ratio IC50 (RAW264.7 [3])
19	CC(C)=CCc1c2c(c(O)c3c1O[C@H](c1ccc(O)cc1)[C@H]3c1cc(O)cc(O)c1)C(=O)C[C@@H](c1ccc(O)cc1)O2	Non-toxic	
27.8	CC1(C)CCC(Cc2c3c(c(O)c4c2O[C@H](c2ccc(O)cc2)[C@H]4c2cc(O)cc(O)c2)C(=O)C[C@@H](c2ccc(O)cc2O)O3)C(C)(C)O1 (stereo partly specified)	Non-toxic	
7.3	CC(C)=CCc1c2c(c(O)c3c1O[C@H](c1ccc(O)cc1)[C@H]3c1cc(O)cc(O)c1)C(=O)C[C@@H](c1ccc(O)cc1O)O2	Non-toxic	3
15.9	C=C(C)C(CC=C(C)C)Cc1c2c(c(O)c3c1O[C@@H](c1ccc(O)cc1)[C@H]3c1cc(O)cc(O)c1)C(=O)C[C@@H](c1ccc(O)cc1O)O2 (stereo partly specified)	Non-toxic	
32.7	C=C(C)C(CCC(C)(C)O)Cc1c2c(c(O)c3c1O[C@H](c1ccc(O)cc1)[C@H]3c1cc(O)cc(O)c1)C(=O)C[C@@H](c1ccc(O)cc1O)O2 (stereo partly specified)	Non-toxic	
